Measured values reported in US20230059136A1, “THE COMPOUNDS AND COMPOSITIONS FOR TREATING CONDITIONS ASSOCIATED WITH NLRP ACTIVITY” (Novartis AG, priority 2018, published 2023).

These compounds were tested on IL-1β production in PMA-differentiated THP-1 cells (assay: IL-1β production in PMA-differentiated THP-1 cells stimulated with gramicidin (hTHP-1 assay containing 2% fetal bovine serum)). Conditions: Homo sapiens, THP-1, Table B1; 2% fetal bovine serum; cells printed as numeric bound; read-out: hTHP-1 IC50 (Average IC50 of compounds in hTHP-1 assay).
Type: cell-based, human
Outline: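 IL-1β release was read by HTRF on supernatants of 50,000 PMA-primed (20 ng/ml, 16-18 h) THP-1 cells/well in 2% FBS medium. Cells saw compound for 1 h (11-point titration from 100 μM, 0.37% DMSO) before a 2 h gramicidin (5 μM) challenge.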

Row | IC50 [µM] | Compound
1 | > 30 | CC(C)(O)c1ncc(S(N)(=O)=NC(=O)Cc2cc3c(c4c2CCC4)CCC3)s1 (single isomer, unassigned) [Example 314, (S) or (R)-N-(amino(2-(2-hydroxypropan-2-yl)thiazol-5-yl)(oxo)-λ^6-sulfaneylidene)-2-(1,2,3,6,7,8-hexahydro-as-indacen-4-yl)acetamide]
2 | > 30 | CC(C)c1cnc(F)c(C(C)C)c1CC(=O)N=S(N)(=O)c1cnc(C(C)(C)O)s1 (single isomer, unassigned) [Example 316, (S) or (R)-N-(amino(2-(2-hydroxypropan-2-yl)thiazol-5-yl)(oxo)-λ^6-sulfaneylidene)-2-(2-fluoro-3,5-diisopropylpyridin-4-yl)acetamide]
3 | > 30 | CC(C)c1cc2c(c(C(C)C)c1CC(=O)N=S(N)(=O)c1cnc(C(C)(C)O)s1)COC2=O (single isomer, unassigned) [Example 318, (S) or (R)-N-(amino(2-(2-hydroxypropan-2-yl)thiazol-5-yl)(oxo)-λ^6-sulfaneylidene)-2-(4,6-diisopropyl-1-oxo-1,3-dihydroisobenzofuran-5-yl)acetamide]
4 | > 30 | CC(C)c1cc2c(c(C(C)C)c1CC(=O)N=S(N)(=O)c1ccn(C(F)F)n1)COC2 (single isomer, unassigned) [Example 320, (S) or (R)-N-(amino(1-(difluoromethyl)-1H-pyrazol-3-yl)(oxo)-λ^6-sulfaneylidene)-2-(4,6-diisopropyl-1,3-dihydroisobenzofuran-5-yl)acetamide]
5 | > 30 | CNCc1ccc(S(N)(=O)=NC(=O)Cc2c(C(C)C)cc(C(F)F)nc2C(C)C)cc1 (single isomer, unassigned) [Example 323, (S) or (R)-N-(amino(4-((methylamino)methyl)phenyl)(oxo)-λ^6-sulfaneylidene)-2-(6-(difluoromethyl)-2,4-diisopropylpyridin-3-yl)acetamide]
6 | > 30 | CC(C)c1cc(C(F)F)cc(C(C)C)c1CC(=O)N=S(N)(=O)c1ccc(CN(C)C)nc1 (single isomer, unassigned) [Example 327, (S) or (R)-N-(amino(6-((dimethylamino)methyl)pyridin-3-yl)(oxo)-λ^6-sulfaneylidene)-2-(4-(difluoromethyl)-2,6-diisopropylphenyl) acetamide]
7 | > 30 | CNCc1ccc(S(N)(=O)=NC(=O)Cc2c(C(C)C)cc(C(F)F)cc2C(C)C)cc1 (single isomer, unassigned) [Example 329, (S) or (R)-N-(amino(4-((methylamino)methyl)phenyl)(oxo)-λ^6-sulfaneylidene)-2-(4-(difluoromethyl)-2,6-diisopropylphenyl) acetamide]
8 | > 30 | CC(C)c1cc(C(F)F)nc(C(C)C)c1CC(=O)N=S(N)(=O)c1ccc(CN(C)C)cc1 (single isomer, unassigned) [Example 332, (S) or (R)-N-(amino(4-((dimethylamino)methyl)phenyl)(oxo)-λ^6-sulfaneylidene)-2-(6-(difluoromethyl)-2,4-diisopropylpyridin-3-yl)acetamide]
9 | > 30 | CC(C)c1cc(C#N)c(F)c(C(C)C)c1CC(=O)N=S(N)(=O)c1cnc(C(C)(O)CO)s1 (single isomer, unassigned) [Example 335, (R, S) or (S, S)-N-(amino(2-(1,2-dihydroxypropan-2-yl)thiazol-5-yl)(oxo)-λ^6-sulfaneylidene)-2-(4-cyano-3-fluoro-2,6-diisopropylphenyl) acetamide]

Same assay, conditions: Homo sapiens, THP-1, Table B1; 2% fetal bovine serum; class symbols; read-out: hTHP-1 IC50 (Average IC50 of compounds in hTHP-1 assay)

Row | IC50 [µM] | Compound
10 | 5 to 30 | CC(C)(O)c1ncc(S(N)(=O)=NC(=O)Cc2cc3c(c4c2CCC4)CCC3)s1 (single isomer, unassigned) [Example 313, (R) or (S)-N-(amino(2-(2-hydroxypropan-2-yl)thiazol-5-yl)(oxo)-λ^6-sulfaneylidene)-2-(1,2,3,6,7,8-hexahydro-as-indacen-4-yl)acetamide]
11 | 5 to 30 | CC(C)c1cnc(F)c(C(C)C)c1CC(=O)N=S(N)(=O)c1cnc(C(C)(C)O)s1 (single isomer, unassigned) [Example 315, (R) or (S)-N-(amino(2-(2-hydroxypropan-2-yl)thiazol-5-yl)(oxo)-λ^6-sulfaneylidene)-2-(2-fluoro-3,5-diisopropylpyridin-4-yl)acetamide]
12 | 1 to 5 | CC(C)c1cc2c(c(C(C)C)c1CC(=O)N=S(N)(=O)c1cnc(C(C)(C)O)s1)COC2=O (single isomer, unassigned) [Example 317, (R) or (S)-N-(amino(2-(2-hydroxypropan-2-yl)thiazol-5-yl)(oxo)-λ^6-sulfaneylidene)-2-(4,6-diisopropyl-1-oxo-1,3-dihydroisobenzofuran-5-yl)acetamide]
13 | 5 to 30 | CC(C)c1cc2c(c(C(C)C)c1CC(=O)N=S(N)(=O)c1ccn(C(F)F)n1)COC2 (single isomer, unassigned) [Example 319, (R) or (S)-N-(amino(1-(difluoromethyl)-1H-pyrazol-3-yl)(oxo)-λ^6-sulfaneylidene)-2-(4,6-diisopropyl-1,3-dihydroisobenzofuran-5-yl)acetamide]
14 | 5 to 30 | CNCc1ccc(S(N)(=O)=NC(=O)Cc2c(C(C)C)cc(C(F)F)nc2C(C)C)cc1 (single isomer, unassigned) [Example 324, (R) or (S)-N-(amino (4-((methylamino)methyl)phenyl)(oxo)-λ^6-sulfaneylidene)-2-(6-(difluoromethyl)-2,4-diisopropylpyridin-3-yl)acetamide]
15 | 1 to 5 | CC(C)c1cc(C(F)F)cc(C(C)C)c1CC(=O)N=S(N)(=O)c1ccc(CN(C)C)nc1 (single isomer, unassigned) [Example 328, (R) or (S)-N-(amino(6-((dimethylamino)methyl)pyridin-3-yl)(oxo)-λ^6-sulfaneylidene)-2-(4-(difluoromethyl)-2,6-diisopropylphenyl) acetamide]
16 | 1 to 5 | CNCc1ccc(S(N)(=O)=NC(=O)Cc2c(C(C)C)cc(C(F)F)cc2C(C)C)cc1 (single isomer, unassigned) [Example 330, (R) or (S)-N-(amino(4-((methylamino)methyl)phenyl)(oxo)-λ^6-sulfaneylidene)-2-(4-(difluoromethyl)-2,6-diisopropylphenyl) acetamide]
17 | 1 to 5 | CC(C)c1cc(C(F)F)nc(C(C)C)c1CC(=O)N=S(N)(=O)c1ccc(CN(C)C)cc1 (single isomer, unassigned) [Example 331, (R) or (S)-N-(amino(4-((dimethylamino)methyl)phenyl)(oxo)-λ^6-sulfaneylidene)-2-(6-(difluoromethyl)-2,4-diisopropylpyridin-3-yl)acetamide]
18 | 0.2 to 1 | CC(C)c1cc2c(c(C(C)C)c1CC(=O)N=S(N)(=O)c1cnc(C(C)(O)CO)s1)COC2 (single isomer, unassigned) [Example 338]

Same assay, conditions: Table B1; 2% fetal bovine serum; class symbols; read-out: hTHP-1 IC50 (Average IC50 of compounds in hTHP-1 assay)

Row | IC50 [µM] | Compound
19 | 0.04 to 0.2 | CC(C)c1cc2c(c(C(C)C)c1CC(=O)N=S(N)(=O)c1sc(C(C)(C)O)cc1F)COC2 (single isomer, unassigned) [Example 321, (R) or (S)-N-(amino (3-fluoro-5-(2-hydroxypropan-2-yl)thiophen-2-yl)(oxo)-λ^6-sulfaneylidene)-2-(4,6-diisopropyl-1,3-dihydroisobenzofuran-5-yl)acetamide]
20 | 5 to 30 | CC(C)c1cc2c(c(C(C)C)c1CC(=O)N=S(N)(=O)c1sc(C(C)(C)O)cc1F)COC2 (single isomer, unassigned) [Example 322, (S) or (R)-N-(amino (3-fluoro-5-(2-hydroxypropan-2-yl)thiophen-2-yl)(oxo)-λ^6-sulfaneylidene)-2-(4,6-diisopropyl-1,3-dihydroisobenzofuran-5-yl)acetamide]
21 | 0.2 to 1 | CC(C)c1cc(C(F)F)cc(C(C)C)c1CC(=O)N=S(N)(=O)c1ccc(CN(C)C)cc1 (single isomer, unassigned) [Example 325, (R) or (S)-N-(amino (4-((dimethylamino)methyl)phenyl)(oxo)-λ6-sulfaneylidene)-2-(4-(difluoromethyl)-2,6-diisopropylphenyl) acetamide]
22 | 5 to 30 | CC(C)c1cc(C(F)F)cc(C(C)C)c1CC(=O)N=S(N)(=O)c1ccc(CN(C)C)cc1 (single isomer, unassigned) [Example 326, (S) or (R)-N-(amino(4-((dimethylamino)methyl)phenyl)(oxo)-λ^6-sulfaneylidene)-2-(4-(difluoromethyl)-2,6-diisopropylphenyl) acetamide]
23 | 0.04 to 0.2 | CC(C)c1cc(C#N)c(F)c(C(C)C)c1CC(=O)N=S(N)(=O)c1cnc(C(C)(O)CO)s1 (single isomer, unassigned) [Example 333]
24 | 5 to 30 | CC(C)c1cc(C#N)c(F)c(C(C)C)c1CC(=O)N=S(N)(=O)c1cnc(C(C)(O)CO)s1 (single isomer, unassigned) [Example 334, (S, S) or (R, S)-N-(amino(2-(1,2-dihydroxypropan-2-yl)thiazol-5-yl)(oxo)-λ^6-sulfaneylidene)-2-(4-cyano-3-fluoro-2,6-diisopropylphenyl) acetamide]
25 | 0.2 to 1 | CC(C)c1cc(C#N)c(F)c(C(C)C)c1CC(=O)N=S(N)(=O)c1cnc(C(C)(O)CO)s1 (single isomer, unassigned) [Example 336, (R, R) or (S, R)-N-(amino(2-(1,2-dihydroxypropan-2-yl)thiazol-5-yl)(oxo)-λ^6-sulfaneylidene)-2-(4-cyano-3-fluoro-2,6-diisopropylphenyl) acetamide]
26 | 0.008 to 0.04 | CC(C)c1cc(C#N)c(F)c(C(C)C)c1CC(=O)N=S(N)(=O)c1cnc(C(C)(O)CO)s1 (single isomer, unassigned) [Example 337, (S, R) or (R, R)-N-(amino(2-(1,2-dihydroxypropan-2-yl)thiazol-5-yl)(oxo)-λ^6-sulfaneylidene)-2-(4-cyano-3-fluoro-2,6-diisopropylphenyl) acetamide]
